Where two headings read alike, the source gives them in different places. Where a SMILES comes first, the peptide text is derived from it. Where no end group is shown, it is not given here.
Assays:
[1] = target: T1, v-Crk (Avian sarcoma virus CT10, UniProt P05433); assay: Tryptophan fluorescence titration of peptides with gst-v-Crk; format: binding; settings: Table 3; fluorescence measurements
T1 construct: made in house; host or cells: bacteria
Description: (§1) Fluorescence Measurements. The fluorescence measurements were based predominantly on the interactions of the peptides with the aromatic residues, predominantly Trp (Yu et al., 1994, Cell 76:933) in the CrkSH3 domain.
(§2) Measurements were made with a Perkin-Elmer 760-40 fluorescence spectrophotometer at a excitation wavelength of 290 nm (slitwidth 2 nm) and an emission wavelength of 345 nm (slitwidth 17 nm). A mini-magnetic stirrer, CUV-O-STIR model 333 (HELLMA, Long Island, N.Y.) was used to mix the solution in a 1 cm square quartz fluorescence cell. A circulating water bath was used to maintain the sample temperature at 18° C. To obtain the titration curves for calculations of the binding constants, peptides from a stock solution of 5 mg/ml in TBS, 0.05% Tween-20 were added in small increments to a 1 ml volume of 0.5 μM SH3 domain in PBS, 1 mM Dithiothreitol (DTT).
(§3) Calculation of the binding constant. Since the concentration of the SH3-domain containing protein was low, the experimental data were fitted to the following equation:
(§4) F=Fmax *[peptide]/(Kd +[peptide]) (1)
(§5) Non-linear regression curve fitting using SigmaPlot (Jandel Scientific, San Rafael, Calif.) was carried out to fit the experimental data to equation (1) with Fmax and Kd as fitted parameters.

[2] = target: T2, c-CrkSH3(1) (Mus musculus, UniProt Q64010); assay: Tryptophan fluorescence titration of peptides with gst-c-CrkSH3(1); format: binding, murine; settings: fluorescence measurements
T2 construct: made in house; host or cells: bacteria
Description: as §1, §2, §3, §4, §5

[3] = target: T3, Grb2 SH3 domain (Homo sapiens, UniProt P62993); assay: Tryptophan fluorescence titration of peptides with gst-Grb2; format: binding
T3 construct: made in house; host or cells: bacteria
T3 sequence (P62993 whole entry, the tested form may be a part): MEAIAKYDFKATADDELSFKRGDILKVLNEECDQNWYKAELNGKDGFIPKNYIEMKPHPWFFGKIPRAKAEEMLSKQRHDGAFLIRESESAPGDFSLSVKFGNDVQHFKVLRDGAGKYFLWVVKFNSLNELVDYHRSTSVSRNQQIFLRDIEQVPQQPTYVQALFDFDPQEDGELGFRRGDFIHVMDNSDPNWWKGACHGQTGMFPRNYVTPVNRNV

[4] = target: T4, CRKL (Homo sapiens, UniProt P46109); assay: Tryptophan fluorescence titration of peptides with gst-CRKL; format: binding; settings: Table 3; fluorescence measurements
T4 construct: made in house; host or cells: bacteria
T4 sequence (P46109 whole entry, species assumed): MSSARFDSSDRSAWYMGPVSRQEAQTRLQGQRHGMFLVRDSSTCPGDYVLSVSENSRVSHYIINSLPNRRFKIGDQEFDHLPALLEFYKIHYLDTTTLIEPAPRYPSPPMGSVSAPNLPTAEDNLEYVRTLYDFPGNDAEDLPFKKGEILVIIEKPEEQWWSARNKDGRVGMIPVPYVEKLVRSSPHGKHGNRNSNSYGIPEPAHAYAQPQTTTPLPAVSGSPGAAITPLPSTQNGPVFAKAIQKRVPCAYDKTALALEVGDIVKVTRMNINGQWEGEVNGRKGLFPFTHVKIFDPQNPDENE
Description: as §1, §2, §3, §4, §5

[5] = target: gst-CrkSH3SH3; assay: ELISA: biotinylated gst-CB fusion proteins binding to immobilized gst-CrkSH3SH3; settings: wells coated with 100 ng/well gst-CrkSH3SH3, biotinylated gst-CB fusion protein, read-out: apparent Kd (half saturation point)
Chain of gst-CrkSH3SH3 (Q64010 132-296 limits assumed): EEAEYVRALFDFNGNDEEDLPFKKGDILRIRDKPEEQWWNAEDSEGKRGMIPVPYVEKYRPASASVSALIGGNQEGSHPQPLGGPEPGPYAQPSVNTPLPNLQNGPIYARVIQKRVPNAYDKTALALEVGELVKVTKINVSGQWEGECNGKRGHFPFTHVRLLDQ
Procedure: ELISA. gst-CB-1 to -4 proteins were biotinylated with Sulfosuccinimidyl 6-(biotinamido) hexanoate (Pierce) according to the manufacturers instructions. ELISA plates (Nunc) were coated with 100 ng/well of gst-Grb2, gst-CrkSH3SH3 or gst in 0.1M NaHCO3, pH 9.6, over night at room temperature (Jones et al., 1991, Mol. Cell Biol. 11:2641). Wells were then blocked with 2% BSA. After washing three times with blocking buffer (20 mM Tris-HCl, pH 7.5, 100 mM NaCl, 0.05% Tween-20, 1 mM EDTA, 0.2% BSA and 0.1% Ovalbumin), biotinylated gst-CB fusion proteins were added at the concentrations indicated in FIG. 6. To measure bound gst-CB fusion proteins, wells were incubated with horseradish Peroxidase coupled streptavidin (Gibco). A chromogenic substrate, 2,2'-azinobis(3-ethylbenzothiazoline-6-sulfonic acid) diaminonium salt (ABTS, Pierce) was then added and the OD was measured at 405 nm after 5 and 15 min and the 5 min OD value subtracted from the 15 min OD value to yield DOD405. In each experiment, the DOD405 at saturation of SH3 domain binding sites was considered 100% . DOD405 values for all other points within the same experiment were expressed as a percentage of this 100% value. Binding to gst alone was subtracted at each data point.

[6] = target: T5, gst-c-CrkSH3(1) (Example 2) (murine, UniProt Q64010); assay: tryptophan fluorescence titration
[7] = target: gst-v-Crk (Avian sarcoma virus CT10 (Avian sarcoma …, UniProt P05433)); assay: tryptophan fluorescence titration
[8] = target: T5, gst-c-CrkSH3(1) (Example 2); assay: tryptophan fluorescence titration; remark: listed apart in the source
[9] = target: T5, gst-c-CrkSH3(1) (Example 2); assay: tryptophan fluorescence titration with gst-CrkSH3(1)
[10] = target: T5, gst-c-CrkSH3(1) (Example 2); assay: tryptophan fluorescence titration; remark: listed apart in the source
[11] = target: T5, gst-c-CrkSH3(1) (Example 2); assay: filter binding of 35S-gst-CrkSH3(1) to blotted gst-fusion peptides
[12] = target: T5, gst-c-CrkSH3(1) (Example 2); assay: rounded value given in the summary of Example 3 for the peptide and Crk SH3-N; measured by fluorescence in Example 2
[13] = c-CrkSH3(1) Kd (μM), Table 2, gst-CrkSH3(1), 18° C
[14] = Table 2, gst-Grb2, fluorescence measurements, 18° C, read-out: Grb2SHD Kd

T1 sequence (P05433 whole entry): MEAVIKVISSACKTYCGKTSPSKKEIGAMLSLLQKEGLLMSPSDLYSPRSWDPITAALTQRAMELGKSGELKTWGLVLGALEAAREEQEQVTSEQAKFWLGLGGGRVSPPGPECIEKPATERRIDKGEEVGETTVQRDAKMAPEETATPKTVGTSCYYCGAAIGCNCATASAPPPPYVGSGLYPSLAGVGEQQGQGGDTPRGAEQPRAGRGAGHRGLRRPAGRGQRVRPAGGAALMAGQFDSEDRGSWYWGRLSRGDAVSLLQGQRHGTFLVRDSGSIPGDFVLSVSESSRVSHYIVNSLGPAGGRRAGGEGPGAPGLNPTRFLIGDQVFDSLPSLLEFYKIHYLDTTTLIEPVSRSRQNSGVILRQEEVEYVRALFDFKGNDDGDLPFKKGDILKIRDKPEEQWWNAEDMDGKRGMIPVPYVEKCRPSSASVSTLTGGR

Q: `CC(C)C[C@H](NC(=O)[C@H](C)NC(=O)[C@@H]1CCCN1C(=O)[C@@H]1CCCN1C(=O)[C@@H]1CCCN1)C(=O)N1CCC[C@H]1C(=O)N1CCC[C@H]1C(=O)N[C@@H](C)C(=O)N[C@@H](CCCCN)C(=O)N[C@@H](CCCNC(=N)N)C(=O)O` (H-PPPALPPAKR-OH) was tested. Which Kd [1] did it give?
A: The Kd was 248 ± 10 µM.

Q: Which results are given for `CC(C)C[C@H](NC(=O)[C@@H]1CCCN1C(=O)[C@@H]1CCCN1C(=O)[C@H](CC(C)C)NC(=O)[C@H](C)NC(=O)[C@@H]1CCCN1C(=O)[C@@H]1CCCN1C(=O)[C@@H]1CCCN1)C(=O)N[C@@H](CCCCN)C(=O)N[C@@H](CCCNC(=N)N)C(=O)O` (H-PPPALPPLKR-OH)?
A: Kd ([2]; gst-c-CrkSH3(1) Kd (μM), Table 3): 379 ± 1 µM; Kd [1]: 437 ± 6 µM

Q: Which results are given for `CC(C)C[C@H](NC(=O)[C@H](C)NC(=O)[C@@H]1CCCN1C(=O)[C@@H]1CCCN1C(=O)[C@@H]1CCCN1)C(=O)N1CCC[C@H]1C(=O)N1CCC[C@H]1C(=O)N[C@@H](CCCNC(=N)N)C(=O)N[C@@H](CCCCN)C(=O)N[C@@H](CCCNC(=N)N)C(=O)O` [C3Gmut(2)] (H-PPPALPPRKR-OH)?
A: Kd [2, 13]: 17.2 ± 0.4 µM; Kd [3]: 23.5 ± 0.8 µM; Kd [4]: 11.2 ± 0.5 µM

Q: What does the source list for `CC(C)[C@H](NC(=O)[C@@H]1CCCN1C(=O)[C@@H]1CCCN1C(=O)[C@@H]1CCCN1)C(=O)N1CCC[C@H]1C(=O)N1CCC[C@H]1C(=O)N[C@@H](CCCNC(=N)N)C(=O)N[C@@H](CCCNC(=N)N)C(=O)N[C@@H](CCCNC(=N)N)C(=O)N[C@@H](CCCNC(=N)N)C(=O)O` [SOS-1, reference compound]?
A: Kd [2, 13]: 5.24 ± 0.16 µM; Kd [3]: 3.54 ± 0.16 µM; Kd [4]: 10.5 ± 0.8 µM

Q: How did the Kd [3, 14] turn out when `CC[C@H](C)[C@H](NC(=O)[C@H](C)NC(=O)[C@@H]1CCCN1C(=O)[C@@H]1CCCN1)C(=O)N1CCC[C@H]1C(=O)N1CCC[C@H]1C(=O)N[C@@H](CCCNC(=N)N)C(=O)N[C@@H](CCC(N)=O)C(=O)N1CCC[C@H]1C(=O)N[C@H](C(=O)O)[C@@H](C)O` [SOS-2] (H-PPAIPPRQPT-OH) was run?
A: The Kd was 42 ± 4 µM.

Q: With “gst-CB-3: gst-fusion protein containing only the single proline-rich sequence CB-3 of C3G (EKPPPLPEKKNK; also: fused to GST)” as the molecule, how does the Kd [5] read?
A: The Kd was 0.0113 µM.

Q: How did the Kd [5] turn out when “gst-CB-2: gst-fusion protein containing only the single proline-rich sequence CB-2 of C3G (DTPPALPEKKRR; also: fused to GST)” was run?
A: Its Kd is 0.027 µM.

Q: Which Kd [5] does the source give for “gst-CB-4: gst-fusion protein containing only the single proline-rich sequence CB-4 of C3G (APPPALPPKQRQ; also: fused to GST)” here?
A: Its Kd is 0.00285 µM.

Q: With `CC(C)C[C@H](NC(=O)[C@H](C)NC(=O)[C@@H]1CCCN1C(=O)[C@@H]1CCCN1C(=O)[C@@H]1CCCN1)C(=O)N1CCC[C@H]1C(=O)N1CCC[C@H]1C(=O)N[C@@H](CCCCN)C(=O)N[C@@H](CCCCN)C(=O)N[C@@H](CCCNC(=N)N)C(=O)O` [CB-1 peptide] as the molecule, how does the Kd ([2]; Kd for the CrkSH3(1) domain) read?
A: The Kd was 1.89 ± 0.06 µM.

Q: And the Kd [3]?
A: The Kd was 142 ± 3 µM.

Q: What about the Kd [4] of the same molecule?
A: The Kd was 2.79 ± 0.1 µM.

Q: How did the Kd ([2]; Table 2, gst-CrkSH3(1), 18° C, read-out: c-CrkSH3(1) Kd) turn out when `CC(C)[C@H](NC(=O)[C@@H]1CCCN1C(=O)[C@@H]1CCCN1C(=O)CN)C(=O)N1CCC[C@H]1C(=O)N1CCC[C@H]1C(=O)N[C@@H](CCCNC(=N)N)C(=O)N[C@@H](CCC(N)=O)C(=O)N[C@@H](CO)C(=O)N[C@H](C(=O)O)[C@@H](C)O` [SOS-4, reference compound] (H-GPPVPPRQST-OH) was run?
A: The Kd was 663 ± 3 µM.

Q: What about the Kd [3, 14] of the same molecule?
A: The Kd was 94 ± 5 µM.

Q: For `CC(C)C[C@H](NC(=O)[C@@H]1CCCN1C(=O)[C@@H]1CCCN1C(=O)[C@@H]1CCCN1C(=O)[C@@H]1CCCN1)C(=O)N1CCC[C@H]1C(=O)N1CCC[C@H]1C(=O)N[C@@H](CCCCN)C(=O)N[C@@H](CCCCN)C(=O)N[C@@H](CCCNC(=N)N)C(=O)O` [C3Gmut(1)] (H-PPPPLPPKKR-OH), which Kd [3] is on record?
A: Its Kd is 203 ± 3 µM.

Q: With `CC(C)C[C@H](NC(=O)[C@@H]1CCCN1C(=O)[C@@H]1CCCN1)C(=O)N[C@@H](CC(C)C)C(=O)N1CCC[C@H]1C(=O)N1CCC[C@H]1C(=O)N[C@@H](CCCNC(=N)N)C(=O)N[C@@H](CCC(=O)O)C(=O)N1CCC[C@H]1C(=O)N[C@H](C(=O)O)C(C)C` [SOS-3, reference compound] (H-PPLLPPREPV-OH) as the molecule, how does the Kd [2, 13] read?
A: Its Kd is 206 ± 9 µM.

Q: And the Kd [3]?
A: Its Kd is 88 ± 3 µM.

Q: “gst-CB-1: gst-fusion protein containing only the single proline-rich sequence CB-1 of C3G (SPPPALPPKKRQ; also: fused to GST)” was tested. Which Kd [5] did it give?
A: The Kd was 0.0104 µM.

B1: peptide PPPALPPKAR (peptide)
peptide: PPPALPPKAR
Q: For B1, which Kd [6] is on record?
A: The Kd was 5.74 µM.

B2: peptide PPPALPPKKK (peptide)
peptide: PPPALPPKKK
Q: For B2, which Kd [7] is on record?
A: Its Kd is 36.2 µM.

Q: And the Kd [6]?
A: The Kd was 5 µM.

B3: C3Gmut(2) peptide (PPPALPPRKR) (peptide)
peptide: PPPALPPRKR
Q: With B3 as the molecule, how does the Kd [7] read?
A: Its Kd is 23.5 µM.

Q: And the “fold decrease of binding against the wild type CB-1 peptide” value [8]?
A: Its value is 10 fold.

Q: What about the “fold increase of Kd against the wild type CB-1 peptide” value [8] of the same molecule?
A: Its value is about 9 fold.

B4: CB-3 peptide (peptide)
peptide: KPPPLPEKKQ
Q: Does B4 bind [9]?
A: Result: binds

B5: SOS-2 peptide (PPAIPPRQPT) (peptide)
peptide: PPAIPPRQPT
Q: For B5, which Kd [10] is on record?
A: The Kd was 127 µM.

B6: CB-4 peptide (peptide)
peptide: PPPALPPKQR
Q: Does B6 bind [9]?
A: Result: binds

B7: peptide PPPALPPKKA (peptide)
peptide: PPPALPPKKA
Q: Which results are given for B7?
A: Kd [7]: 71.8 µM; Kd [6]: 9.3 µM

B8: gst-1-12 (GST-NSPPPALPPKKR) (other)
chain: NSPPPALPPKKR
modifications: not fully specified
Q: Does B8 bind [11]?
A: Result: binds

B9: CB-1 peptide (PPPALPPKKR) (peptide)
peptide: PPPALPPKKR
Q: B9 was tested. Which Kd [12] did it give?
A: The Kd was about 2 µM.

Q: What about the Kd [7] of the same molecule?
A: Its Kd is 25.5 µM.

B10: gst-3-11 (CB-1 gst-fusion peptide without the C-terminal Arg-12) (other)
chain: PPPALPPKK
Q: Does B10 bind [11]?
A: Result: no binding

B11: C3Gmut(1) peptide (PPPPLPPKKR) (peptide)
peptide: PPPPLPPKKR
Q: For B11, which Kd [10] is on record?
A: Its Kd is 1.45 µM.

B12: Lys-10Ala mutant peptide (PPPALPPAKR) (peptide)
peptide: PPPALPPAKR
Q: B12 was tested. Which Kd [6] did it give?
A: The Kd was 22.1 µM.

Q: What about the “fold decrease of binding against the wild type CB-1 peptide” value [8] of the same molecule?
A: The value was 10 fold.

Q: What about the “fold increase of Kd against the wild type CB-1 peptide” value [8] of the same molecule?
A: The value was 11.7 fold.

Q: What about the “fold reduction of binding affinity against the wild type CB-1 peptide” value [8] of the same molecule?
A: Its value is 11.6 fold.

B13: CB-2 peptide (peptide)
peptide: TPPALPEKKR
Q: Does B13 bind [9]?
A: Result: binds

B14: SOS-1 peptide (PPPVPPRRRR) (peptide)
peptide: PPPVPPRRRR
Q: How did the Kd [7] turn out when B14 was run?
A: The Kd was 23.7 µM.

— patent publication US5888763A, “Peptides specific for the first Crk-SH3 domain” (The Rockefeller University, priority 1994, dated 1999)
